From article PMC13267291, “In vivo functional profiling and structural characterization of the human GLP1R A316T variant” (Science Advances, 2026)

Assays:
[1] = tested on: SNAP/FLAG-hGLP1R^A316T versus ^WT; assay: GLP-1R ubiquitination assay; type: cell-based, rat; details: 100 nM, 10 min; n = 5; Fig. 8K
Experimental: INS-1 832/3 Glp1r-/- SNAP/FLAG-hGLP1RWT or A316T cells plated onto 6- cm dishes were stimulated ± 100 nM exendin-4 for 10 min, washed with PBS and osmotically lysed in lysis buffer (50 mM tris-HCl, pH 7.4, 150 mM NaCl, 1% Triton X-100, 1 mM EDTA) with 1% protease inhibitor (Roche) and 1% phosphatase inhibitor cocktail (Sigma-Aldrich) at 4°C. Cell lysates were centrifuged at 12,000 g and 4°C for 10 min prior to the addition of 40 μL anti- FLAG M2 beads (A2220, Sigma-Aldrich) and overnight rotating incubation at 4°C to increase FLAG-tag binding efficiency. Samples were then centrifuged at 5,000 g for 30 s, bead pellets washed 3x in 500 μL wash buffer (50 mM Tris-HCl, 150 mM NaCl, pH 7.4), and proteins eluted with 2x urea buffer at 37°C for 10 min before Western blot analysis with anti-ubiquitin antibody (1:1,000; sc-8017, Santa Cruz Biotechnology) and sheep anti-mouse HRP secondary (1:5,000; ab6808, Abcam) followed by stripping and reblotting with anti-SNAP antibody as above to assess immunoprecipitated receptor per sample. GLP-1R ubiquitination was calculated from ubiquitin over SNAP band intensity levels under the different conditions tested using Fiji.
LC- MS/MS G LP-1R interactome analysis
INS-1 832/3 Glp1r-/- SNAP/FLAG-hGLP1RWT or A316T cells were plated onto 6-cm dishes and stimulated with vehicle or 100 nM GLP-1RA for 5 min as previously described (63). […]

[2] = tested on: SNAP/FLAG-hGLP1R^A316T versus ^WT; assay: Insulin secretion in EndoC-βH3 GLP1R^-/--enriched cells; type: cell-based, human; details: 15 mM glucose + 100 nM, 60 min; n = 4; Fig. 6C,D
Experimental: Purified mouse islets used for insulin secretion assays were treated in 24-well nonadherent plates. Eight islets were used per replicate with three technical replicates per condition. For acute studies, islets were preincubated for 1 hour in KRBH buffer containing 0.1% (w/v) bovine serum albumin (BSA) (10775835001, Roche) and 3 mM glucose before incubation with 11 mM glucose ± 100 nM GLP-1RAs or the GLP-1R antagonist exendin-9 in KRBH buffer in a shaking 37°C water bath (80 rpm) for 1 hour. For overnight studies, preincubation was carried out in RPMI 1640 medium containing FBS, P/S, and 3 mM glucose, followed by treatment with medium supplemented with 11 mM glucose ± GLP-1RAs for 16 hours. […] Insulin secretion assays with the human EndoC-βH3 cell line were performed following 3 weeks of treatment with 4-hydroxytamoxifen as above, followed by transduction with pAV-SNAP/FLAG-hGLP1R^WT or ^A316T adenoviruses, with insulin secretion assessed as previously described ([54]), with the following modifications: After preincubation with 0.5 mM glucose KRBH buffer, cells were stimulated with 15 mM glucose ± exendin-4 for 60 min. Total and secreted insulin samples from islets and cells were stored at −20°C until quantification using an Insulin Ultra-Sensitive HTRF kit (#62IN2PEG, Revvity) in a PHERAstar plate reader (BMG Labtech), according to the manufacturer’s instructions.

[3] = tested on: human GLP-1R A316T versus WT; assay: Real-time cAMP imaging (cADDis) in mouse islets; type: cell-based; details: chow-fed mouse islets; 100 nM; 6 mM glucose; AUC; n = 4; not significant; Fig. 5D-F
Experimental: To measure cAMP, hGLP1R^A316T/A316T versus ^+/+ control mouse islets, or INS-1 832/3 SNAP/FLAG-hGLP1R^WT versus ^A316T cells cultured on glass-bottom MatTek dishes, were transduced with cADDis (Green Gs cADDis cAMP Kit, Montana Molecular), a baculovirus genetically encoding a fluorescent cAMP in situ biosensor, following the manufacturer’s instructions. Transduced islets were subsequently encased into Matrigel on glass-bottom MatTek dishes 24 hours after transduction, and both islets and cells were imaged at λex = 488 nm in a Nikon Eclipse Ti spinning disk confocal microscope and 20× objective with an ORCA-Flash 4.0 camera (Hamamatsu) for time-lapse recordings with image acquisitions every 6 s in KRBH buffer containing 0.1% (w/v) BSA and 6 mM glucose for 2 min to record the baseline, with 100 nM GLP-1RA subsequently added by manual pipetting, and islets imaged for a further 5 min before addition of 100 μM IBMX + 10 μM forskolin for the final 2 min of the acquisition. Raw green fluorescence intensity traces were extracted from whole islet regions of interest (ROIs) using Fiji, and mean intensities were calculated for each ROI and time point. Responses were plotted relative to average fluorescence intensity per islet during the baseline period before GLP-1RA addition.

In the case of exendin-4, the “Effect of agonist stimulation on WT GLP-1R ubiquitination level” value [1] is reported as “did not affect”, the “Effect of agonist stimulation on ubiquitination of the A316T receptor” value [1] is reported as “significantly increased” and the “Agonist-stimulated insulin secretory fold increases, A316T versus WT” value [2] is reported as “significantly reduced”. For the same substance, the “cAMP response to agonist, A316T/A316T versus +/+ islets” value [3] was “trend for reduced cAMP”.
For exendin-F1, the “cAMP response to agonist, A316T/A316T versus +/+ islets” value [3] was “near-significant increase in cAMP”.
